Reference: ChEMBL document CHEMBL1201862, “PubChem BioAssay data set” (2004)
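Assay format: 96-well plates, 48-hour exposure. The concentration for 50% growth inhibition is given as GI50.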 The source made the active and inactive calls. Rule as the data show it: active = GI50 up to about 1.1 µM and inactive = higher.

Experiments:
Experiment in all cases: growth of human tumour cells (NCI), 48 h
SNB-19 = test system: SNB-19
K562 = test system: K562
SK-MEL-5 = test system: SK-MEL-5
M14 = test system: M14
HCC 2998 = test system: HCC 2998
LOX IMVI = test system: LOX IMVI
SR = test system: SR
NCI-H23 = test system: NCI-H23
U-251 = test system: U-251
PC-3 = test system: PC-3
KM12 = test system: KM12
BT-549 = test system: BT-549
NCI/ADR-RES = test system: NCI/ADR-RES
MDA-MB-435 = test system: MDA-MB-435
T47D = test system: T47D
DU-145 = test system: DU-145
CAKI-1 = test system: CAKI-1
MDA-N = test system: MDA-N
A498 = test system: A498
SK-MEL-2 = test system: SK-MEL-2

| Structure (SMILES) | GI50 (SNB-19) | GI50 (K562) | GI50 (SK-MEL-5) | GI50 (M14) | GI50 (HCC 2998) | GI50 (LOX IMVI) | GI50 (SR) | GI50 (NCI-H23) | GI50 (U-251) | GI50 (PC-3) | GI50 (KM12) | GI50 (BT-549) | GI50 (NCI/ADR-RES) | GI50 (MDA-MB-435) | GI50 (T47D) | GI50 (DU-145) | GI50 (CAKI-1) | GI50 (MDA-N) | GI50 (A498) | GI50 (SK-MEL-2) |
| --- | --- | --- | --- | --- | --- | --- | --- | --- | --- | --- | --- | --- | --- | --- | --- | --- | --- | --- | --- | --- |
| Cc1cccc2c1Sc1ccccc1C2NC(=O)CN(C)C (stereo not drawn) | > 100 µM (inactive) | 81.1 µM (inactive) | 36.1 µM (inactive) | 41.4 µM (inactive) | 47.6 µM (inactive) | > 100 µM (inactive) | 54.7 µM (inactive) | > 100 µM (inactive) | > 100 µM (inactive) | – | – | – | – | – | – | – | – | – | – | – |
| Nc1nc(=S)[nH]c2nc3c(c(-c4ccccc4)c12)CCCC3 | > 100 µM (inactive) | > 100 µM (inactive) | > 100 µM (inactive) | > 100 µM (inactive) | – | > 100 µM (inactive) | > 100 µM (inactive) | > 100 µM (inactive) | > 100 µM (inactive) | > 100 µM (inactive) | > 100 µM (inactive) | > 100 µM (inactive) | > 100 µM (inactive) | > 100 µM (inactive) | 60.1 µM (inactive) | > 100 µM (inactive) | > 100 µM (inactive) | > 100 µM (inactive) | – | – |
| O=Cc1c(Br)[nH]c2ccccc12 | – | > 100 µM (inactive) | 45.4 µM (inactive) | – | > 100 µM (inactive) | 71.6 µM (inactive) | – | > 100 µM (inactive) | 89.3 µM (inactive) | – | > 100 µM (inactive) | – | > 100 µM (inactive) | – | – | – | – | – | > 100 µM (inactive) | 75.3 µM (inactive) |
| COc1ccc(NC2=NCCO2)c2ccccc12 | > 10 µM (inactive) | > 10 µM (inactive) | > 10 µM (inactive) | > 10 µM (inactive) | > 10 µM (inactive) | > 10 µM (inactive) | > 10 µM (inactive) | – | – | > 10 µM (inactive) | > 10 µM (inactive) | – | > 10 µM (inactive) | > 10 µM (inactive) | > 10 µM (inactive) | > 10 µM (inactive) | > 10 µM (inactive) | > 10 µM (inactive) | > 10 µM (inactive) | > 10 µM (inactive) |
| O=C(NCCCNC(=O)c1ccc2cc(O)c(O)cc2c1)c1ccc2cc(O)c(O)cc2c1 | 18.3 µM (inactive) | 33.7 µM (inactive) | 22.8 µM (inactive) | 45.7 µM (inactive) | 18.6 µM (inactive) | 24.2 µM (inactive) | 25.3 µM (inactive) | 22.5 µM (inactive) | 21.9 µM (inactive) | 27.4 µM (inactive) | 37.9 µM (inactive) | 26.9 µM (inactive) | > 100 µM (inactive) | 32.4 µM (inactive) | 26.7 µM (inactive) | 26.7 µM (inactive) | > 100 µM (inactive) | 31.7 µM (inactive) | 63.4 µM (inactive) | 13.1 µM (inactive) |
| O=c1c2cc(I)ccc2nc(-c2cccs2)n1Nc1ccccc1 | 23.5 µM (inactive) | – | 6.79 µM (inactive) | 1.5 µM (inactive) | 16 µM (inactive) | 0.117 µM (active) | 12.1 µM (inactive) | 19.9 µM (inactive) | 10.4 µM (inactive) | 1.61 µM (inactive) | 4.14 µM (inactive) | 3.14 µM (inactive) | 22.3 µM (inactive) | 0.649 µM (active) | – | – | 11 µM (inactive) | – | – | 0.33 µM (active) |
